Test results from US8088605B2, “Exopolysaccharides delivery system for active molecules” (Technologies Biolactics Inc., priority 2002, dated 2012).
Entries after “also recorded” stand apart in the source; their conditions may differ.

Key:
[1] = tested on: B16 cells; assay: Intramuscular B16 tumor formation after i.m. injection of paclitaxel-treated cells; assay type: in vivo; details: mice with tumor / mice in group; cells treated 3 hrs before i.m. injection
Procedure: (§1) Cells (50000 cells per 50 μl injections) for a concentration of 10^6 cells per ml. The remaining of the test was performed as follows: • Cells from 1XT75 (80% confluence) are trypsinized with 2 ml trypsin, diluted in 12 ml media, spun down, rinsed once in 5 ml PBS, and resuspended in 2 ml PBS. Cells are then counted and concentration adjusted to 10^6 cells per ml. • P1 treatment: Add 200 μl P1 stock and […] of cell suspension (10^6 cells) and incubate at room temperature 3 hrs. Final Paclitaxel=1 mM, DMSO=1%. • P2 treatment: Add 200 μl P2 stock to 1.8 ml of cell suspension (10^6 cells) and incubate at room temperature 3 hrs. […] No growth was observed from either group after 2 weeks in culture.

[2] = tested on: B16 cells; assay: Growth in tissue culture of paclitaxel-treated B16 cells; assay type: cell-based; details: replated after treatment, 2 weeks in culture
Procedure: as §1

[3] = tested on: Caco-2 human colon adenocarcinoma cells in proliferation; assay: Survival of Caco-2 cells in proliferation with 5-Fu and EPS, XTT; assay type: cell-based; details: four days exposure
Procedure: (§2) The in vitro toxicity of the exopolysaccharide micelles was tested by incubating the micelles with a wide range of cell lines for 4-hour, 8-hour, 72-hour and 96-hour periods. The XTT™ or Alamar Blue™ assays were used to quantify the survival rates in the presence of the exopolysaccharide micelles. The capability of the exopolysaccharide to deliver an active molecule was first tested in vitro using 5-Fluorouracil (5-Fu) as a model active molecule. […] The 5-Fu/exopolysaccharide formulation was incubated with either B16F10 (murine skin melanoma), Caco-2 (human colon adenocarcinoma) or IEC-6 (rat epithelial small intestine) cells over 72-hour to 96-hour. Vital dyes (XTT or Alamar Blue) were added to supernatants for a period of 4 hours. Absorbance values were collected and plotted to evaluate the survival rate of the cells to the treatment.
(§3) Caco-2, IEC-6 and melanocytes B16 cells were cultured in DMEM supplemented with 10% FBS. […] The cells were grown in a CO2 incubator for 4 extra days. Cell survival was assessed with XTT™ according to manufacturers recommendation. […] The data are as follows:
(§4) Percentages of EPS are expressed in (w/v).

[4] = tested on: IEC-6 rat normal small intestine epithelial cells; assay: Survival of IEC-6 cells with 5-Fu and EPS, Alamar Blue; assay type: cell-based; parameters: unit not given here; details: three days exposure
Procedure: as §2, §3
[NB073]. Percentages of EPS are expressed in (w/v).

[5] = tested on: B16 cells; assay: Mice grafted i.p. with B16 cells treated with 5 FU/EPS; assay type: in vivo, Balb/c mice
Procedure: Tumor cells were trypsinized and washed 3 times with PBS. Cells (1×10E6) were injected i.p. to Balb/c mice to induce a cancer in the peritoneal cavity. […] This highlighting again that EPS are not inert and may contribute to the therapeutic index.

[6] = tested on: B16F10 murine skin melanoma cells; assay: Survival of B16F10 cells with 5-Fu and EPS, XTT; assay type: cell-based; details: four days exposure
Procedure: as §2, §3, §4

[7] = tested on: Caco-2 human colon adenocarcinoma cells differentiated; assay: Survival of differentiated Caco-2 cells with 5-Fu and EPS, XTT; assay type: cell-based; details: four days exposure
Procedure: as §2, §3, §4

[8] = Rhodamine 123 pharmacokinetic in rats, oral; assay type: in vivo, Wistar female rats; details: 5 mg/kg oral
Procedure: The pharmacokinetic of Rhodamine 123 (R123) was performed on unfasten Wistar female rats of 200 g and 8 weeks of age. Rhodamine concentration is 5 mg/kg. […] Rhodamine is added to the latter solutions and vortexed. Formulations are fed to the animals with a canula and 200 μl blood samples are collected through the jugular vein every hour for 4 hours (plus 1 sample at 0.5 h). Plasma are collected immediately after centrifugation (10 min @ 13000 g). Plasma are frozen on dry ice until further analysis: 50 μl of plasma are diluted in 550 μl of saline 0.7% (w/v) and analyzed with a Varian Eclipse™ Spectrofluorometer (Excitation: 505 nm Emission: 540 nm). Concentrations were determined on a Rhodamine 123 standard curve (R123 diluted in saline 0.7% and 50 μl of normal serum as in the sample analysis).

[9] = Fluorescein pharmacokinetic in rats, oral; assay type: in vivo, Wistar female rats; parameters: unit not given here; details: fluorescein 1 mg/kg oral
Procedure: Fluorescein (FL) pharmacolinetic on unfasten Wistar female rats of 200 g and 8 weeks of age. Fluorescein concentration is 1 mg/kg. […] Fluorescein is added to the latter solutions and vortexed. Formulations are fed to the animals with a canula. 200 μl blood samples are collected through the jugular vein every 30 minutes for 2.5 hours. A final bleeding is made at 3.5 h. Plasma are collected immediately after centrifugation (10 min @ 1300 g). Plasma are frozen on dry ice until further analysis: 50 μl of plasma are diluted in 550 μl of saline 0.7% (w/v) and analyzed with a Varian Eclipse Spectrofluorometer (Excitation: 495 nm Emission: 515 nm). Concentrations were determined on a fluorescein standard curve (FL diluted in saline 0.7% and 50 μl of normal serum as in the sample analysis).

CC(=O)O[C@H]1C(=O)[C@@]2(C)[C@H]([C@H](OC(=O)c3ccccc3)[C@]3(O)C[C@H](OC(=O)[C@H](O)[C@@H](NC(=O)c4ccccc4)c4ccccc4)C(C)=C1C3(C)C)[C@]1(OC(C)=O)CO[C@@H]1C[C@@H]2O [P1, Paclitaxel]
Intramuscular tumor formation [1]: 12/15 | Growth in tissue culture [2]: No growth; also recorded: negative

O=c1[nH]cc(F)c(=O)[nH]1 [5-Fu alone, 5-Fluorouracil]
Survival of Caco-2 cells in proliferation ([3]; 5-Fu 1 μg/ml): 74.1 ± 1.9 | Survival of Caco-2 cells in proliferation ([3]; 5-Fu 10 μg/ml): 78.6 ± 2.4 | Survival of Caco-2 cells in proliferation ([3]; 5-Fu 50 μg/ml): 80.3 ± 1.8 | Survival of Caco-2 cells in proliferation ([3]; 5-Fu 100 μg/ml): 52.6 ± 4.8 | Survival of IEC-6 cells ([4]; Table 5, 5-Fu 5 μg/ml): 16.9 ± 6.4 | Survival of IEC-6 cells ([4]; Table 5, 5-Fu 50 μg/ml): 28.0 ± 4.6 | Survival of IEC-6 cells ([4]; Table 5, 5-Fu 250 μg/ml): 35.4 ± 8.2 | Survival of IEC-6 cells ([4]; Table 5, 5-Fu 500 μg/ml): 33.4 ± 3.5 | Survival of IEC-6 cells ([4]; Table 6, 5-Fu 1 μg/ml): 78.0 ± 3.0 | Survival of IEC-6 cells ([4]; Table 6, 5-Fu 10 μg/ml): 75.4 ± 2.9 | Survival of IEC-6 cells ([4]; Table 6, 5-Fu 50 μg/ml): 81.8 ± 2.1 | Survival of IEC-6 cells ([4]; Table 6, 5-Fu 100 μg/ml): 80.2 ± 0.9 | Tumor-free mice ([5]; day 0): 100% | Tumor-free mice ([5]; day 15, 5 FU 100 mg/kg, EPS 0.1% w/v, treatment after 4 days): 62.5% | Tumor-free mice ([5]; day 29, 5 FU 100 mg/kg, EPS 0.1% w/v, treatment after 4 days): 12.5% | Tumor-free mice ([5]; day 44, 5 FU 100 mg/kg, EPS 0.1% w/v, treatment after 4 days): 12.5% | Survival of B16F10 cells ([6]; 5-Fu 1 μg/ml): 62.6 ± 6.6 | Survival of B16F10 cells ([6]; 5-Fu 10 μg/ml): 65.4 ± 10.4 | Survival of B16F10 cells ([6]; 5-Fu 50 μg/ml): 54.9 ± 8.9 | Survival of B16F10 cells ([6]; 5-Fu 100 μg/ml): 38.8 ± 8.5 | Survival of Caco-2 cells differentiated ([7]; 5-Fu 1 μg/ml): 105.7 ± 4.2 | Survival of Caco-2 cells differentiated ([7]; 5-Fu 10 μg/ml): 85.6 ± 8.8 | Survival of Caco-2 cells differentiated ([7]; 5-Fu 50 μg/ml): 99.6 ± 6.8 | Survival of Caco-2 cells differentiated ([7]; 5-Fu 100 μg/ml): 78.1 ± 0.7

Rhodamine 123 [R123 - Water]
Rhodamine 123's concentration in plasma ([8]; time 0.0 h): 2.2 ± 2.2 ng/mL | Rhodamine 123's concentration in plasma ([8]; time 0.5 h): 20.4 ± 2.2 ng/mL | Rhodamine 123's concentration in plasma ([8]; time 1.0 h): 20.9 ± 2.6 ng/mL | Rhodamine 123's concentration in plasma ([8]; time 2.0 h): 15.4 ± 2.0 ng/mL | Rhodamine 123's concentration in plasma ([8]; time 3.0 h): 10.9 ± 1.4 ng/mL | Rhodamine 123's concentration in plasma ([8]; time 4.0 h): 11.2 ± 1.8 ng/mL

O=C1OC2(c3ccc(O)cc3Oc3cc(O)ccc32)c2ccccc21 [FL-Water, Fluorescein]
Fluorescein concentration in plasma ([9]; time 0.0 h): 37.10 | Fluorescein concentration in plasma ([9]; time 0.5 h): 218.30 | Fluorescein concentration in plasma ([9]; time 1.0 h): 145.95 | Fluorescein concentration in plasma ([9]; time 1.5 h): 75.25 | Fluorescein concentration in plasma ([9]; time 2.0 h): 74.48 | Fluorescein concentration in plasma ([9]; time 2.5 h): 71.74 | Fluorescein concentration in plasma ([9]; time 3.5 h): 54.63
